Data reported in US8828696B2, “Use of Penicillin G Procaine as a selective antimicrobial agent in the production of alcohol by fermentation” (Lallemand Specialites, Inc, priority 2008, dated 2014).
Where “and” joins values, the source holds several entries; their conditions need not be identical. Equal entries are not always repeated. Where two headings read alike, the source gives them in different places.

Legend:
[1] = system: Saccharomyces cerevisiae yeast; assay type: cell-based
Procedure: A study was conducted to determine the degree of impact of the fermentation antimicrobial Penicillin G Procaine and Penicillin G potassium during alcohol production by fermentation. The antimicrobial impact was inferred by conducting a series of fermentations and measuring if the above said antibiotics interfered with the cell growth and the fermentation function of Saccharomyces cerevisiae yeast used in the fermentation phase. This study provided analysis of what impact, if any, the Penicillin G Procaine or Penicillin G Potassium has on the yeast during lab scale fermentations, specifically BioFerm® XR yeast from North American Bioproducts Corporation (NABC). This study observed the ability of yeast to replicate and ferment a corn mash substrate with and without the presence of Penicillin G Procaine or Penicillin G Potassium.
This study was set up in a series of fermentation vessels. All antibiotic concentrations were tested in triplicate. Cell counts were done on one flask for each treatment at 12, 24, 36 and 48 hours and testing of the fermentation reactions by HPLC was also performed at 12, 24, 36 and 48 hours. The experiment was set as follows:
1. Antibiotic solutions were prepared to provide a sterile 1 and 10 μg/ml solutions.
2. Antibiotic solutions tested were as follows:
3. Fermentations were set up using 31% solids corn mash using saccharifying enzymes and the following procedure:
A. Yeast Conditioning: • 1. Add 2 g yeast to 10 ml sterile water for each 3 flasks to test, (14 g yeast to 70 ml water) into a sterile 250 ml flask and place in water bath set to 100° F. • 2. Incubate at 100° F. for 30 minutes with occasional mixing. • 3. Remove flasks from water bath and divide suspension between the all flasks for the trial.
B. Fermentation Procedure • 1. To prepared mash, add the following. • a. Add 0.58 g urea/liter mash and mix. • b. Add 0.2 ml GA per liter and mix. • 2. Remove sample for background HPLC testing. • 3. Add antibiotic solution to labeled sterile 250 ml flasks. • 4. Add hydrated yeast suspension to mash and mix well. • 5. Add sterile stir bar to each flask and add about 150 ml mash into each 250 ml flask for a total of 21 flasks. • 6. Cover each flask with a gas trap in a sterilized stopper. • 7. Place in a 33° C. water bath with continuous mixing at 280 rpm at 75% power. • 8. Remove sample at 12 hr interval to perform cell count, viability and budding. • 9. Incubate sample up to 48 hours, enough time for complete fermentation • 10. Collect samples at the following times for cell counts and HPLC testing: 12 hours; 24 hours; 36 hours and 48 hours

contaminating bacteria = assay: Alcohol production plant trial, fermentor drop data (50 m/g/y dry grind, corn); assay type: cell-based
Procedure: This trial was conducted at a 50 million gallon per year (m/g/y) dry grind fuel alcohol production facility utilizing corn as a fermentation substrate. Batch yeast propagation and fermentation process were utilized. Antimicrobials were added to the fermentor during the fill cycle at approximately 30% fill.
No other changes were made to the process or chemical additions that would influence the fermentation kinetics monitored during 3 sets of fermentor batches listed below. The fermentation data was accumulated at the end (drop) of the fermentation process for each of the fermentors. Fermentation kinetics was measured for three batch cycles including:
Set 1—“Pre Penicillin G Procaine trial”-10 fermentor batches using a level of 0.5 ppm Virginiamycin. See results in Table 2.
Set 2—“Penicillin G Procaine trial”-10 fermentor batches using a level of 0.5 ppm of Penicillin G Procaine. See results in Table 3.
Set 3—“Post Penicillin G Procaine trial”-10 fermentor batches using a level of 0.5 ppm of Virginiamycin. See results in Table 4.

[2] = 5 ppm, 12 hours, total cell count x % viability
[3] = 5 ppm, 12 hr fermentation sample
[4] = 5 ppm, 24 hours, total cell count x % viability
[5] = 5 ppm, 24 hr fermentation sample
[6] = 5 ppm, 36 hours, total cell count x % viability
[7] = 5 ppm, 36 hr fermentation sample
[8] = 5 ppm, 48 hours, total cell count x % viability
[9] = 5 ppm, 48 hr fermentation sample
[10] = 5 ppm, average of 12, 24, 36 and 48 hour samples
[11] = 15 ppm, 12 hours, total cell count x % viability
[12] = 15 ppm, 12 hr fermentation sample
[13] = 15 ppm, 24 hours, total cell count x % viability
[14] = 15 ppm, 24 hr fermentation sample
[15] = 15 ppm, 36 hours, total cell count x % viability
[16] = 15 ppm, 36 hr fermentation sample
[17] = 15 ppm, 48 hours, total cell count x % viability
[18] = 15 ppm, 48 hr fermentation sample
[19] = 15 ppm, average of 12, 24, 36 and 48 hour samples
[20] = 30 ppm, 12 hours, total cell count x % viability
[21] = 30 ppm, 12 hr fermentation sample
[22] = 30 ppm, 24 hours, total cell count x % viability
[23] = 30 ppm, 24 hr fermentation sample
[24] = 30 ppm, 36 hours, total cell count x % viability
[25] = 30 ppm, 36 hr fermentation sample
[26] = 30 ppm, 48 hours, total cell count x % viability
[27] = 30 ppm, 48 hr fermentation sample
[28] = 30 ppm, average of 12, 24, 36 and 48 hour samples
[29] = average for all three trials (5, 15, 30 ppm), 12-48 hour samples
[30] = average for all three trials (5, 15, 30 ppm), 12 hours
[31] = average for all three trials (5, 15, 30 ppm), 24 hours
[32] = average for all three trials (5, 15, 30 ppm), 36 hours
[33] = average for all three trials (5, 15, 30 ppm), 48 hours
[34] = average for all three trials (5, 15, 30 ppm), Average 12-48 hours
[35] = Penicillin G Procaine trial 0.5 ppm compared with Virginiamycin sets
[36] = Set 2 'Penicillin G Procaine trial', 0.5 ppm, 10 Batch average
[37] = Set 2 'Penicillin G Procaine trial', 0.5 ppm, drop data, single fermentor batch

Compound: CC1(C)S[C@@H]2[C@H](NC(=O)Cc3ccccc3)C(=O)N2[C@H]1C(=O)[O-].[K+] [Penicillin G Potassium]
- viable yeast cell count [1, 2]: 510
- % B (% budding) [1, 3]: 13.8%
- % V (% viability) [1, 3]: 88%
- CC (cell count) [1, 3]: 580
- viable yeast cell count [1, 4]: 500
- % B (% budding) [1, 5]: 8.4%
- % V (% viability) [1, 5]: 90%
- CC (cell count) [1, 5]: 556
- viable yeast cell count [1, 6]: 421
- % B (% budding) [1, 7]: 8.1%
- % V (% viability) [1, 7]: 81%
- CC (cell count) [1, 7]: 520
- viable yeast cell count [1, 8]: 381
- % B (% budding) [1, 9]: 8.9%
- % V (% viability) [1, 9]: 75%
- CC (cell count) [1, 9]: 508
- viable yeast cell count ([1]; 5 ppm, Average 12-48 hours): 453
- A % B (average % budding) [1, 10]: 9.8%
- A % V (average % viability) [1, 10]: 83.5%
- ACC (average cell count) [1, 10]: 541
- viable yeast cell count [1, 11]: 469
- % B (% budding) [1, 12]: 13.3%
- % V (% viability) [1, 12]: 85%
- CC (cell count) [1, 12]: 552
- viable yeast cell count [1, 13]: 465
- % B (% budding) [1, 14]: 7.5%
- % V (% viability) [1, 14]: 86%
- CC (cell count) [1, 14]: 541
- viable yeast cell count [1, 15]: 435
- % B (% budding) [1, 16]: 6.2%
- % V (% viability) [1, 16]: 82%
- CC (cell count) [1, 16]: 530
- viable yeast cell count [1, 17]: 372
- % B (% budding) [1, 18]: 7.3%
- % V (% viability) [1, 18]: 72%
- CC (cell count) [1, 18]: 516
- viable yeast cell count ([1]; 15 ppm, Average 12-48 hours): 435
- A % B (average % budding) [1, 19]: 8.6%
- A % V (average % viability) [1, 19]: 81.3%
- ACC (average cell count) [1, 19]: 535
- viable yeast cell count [1, 20]: 535
- % B (% budding) [1, 21]: 12.3%
- % V (% viability) [1, 21]: 86%
- CC (cell count) [1, 21]: 622
- viable yeast cell count [1, 22]: 462
- % B (% budding) [1, 23]: 8.7%
- % V (% viability) [1, 23]: 88%
- CC (cell count) [1, 23]: 525
- viable yeast cell count [1, 24]: 401
- % B (% budding) [1, 25]: 8.7%
- % V (% viability) [1, 25]: 80%
- CC (cell count) [1, 25]: 501
- viable yeast cell count [1, 26]: 393
- % B (% budding) [1, 27]: 6.4%
- % V (% viability) [1, 27]: 77%
- CC (cell count) [1, 27]: 511
- viable yeast cell count ([1]; 30 ppm, Average 12-48 hours): 448
- A % B (average % budding) [1, 28]: 9.0%
- A % V (average % viability) [1, 28]: 82.8%
- ACC (average cell count) [1, 28]: 540
- A % B (average % budding) [1, 29]: 9.1%
- A % V (average % viability) [1, 29]: 82.5%
- ACC (average cell count) [1, 29]: 539
- viable yeast cell count [1, 30]: 505
- viable yeast cell count [1, 31]: 476
- viable yeast cell count [1, 32]: 419
- viable yeast cell count [1, 33]: 382
- viable yeast cell count [1, 34]: 445

Compound: CC1(C)S[C@@H]2[C@H](NC(=O)Cc3ccccc3)C(=O)N2[C@H]1C(=O)O.CCN(CC)CCOC(=O)c1ccc(N)cc1 [Penicillin G Procaine]
- viable yeast cell count [1, 2]: 535
- % B (% budding) [1, 3]: 15.0%
- % V (% viability) [1, 3]: 89%
- CC (cell count) [1, 3]: 601
- viable yeast cell count [1, 4]: 489
- % B (% budding) [1, 5]: 7.9%
- % V (% viability) [1, 5]: 88%
- CC (cell count) [1, 5]: 556
- viable yeast cell count [1, 6]: 432
- % B (% budding) [1, 7]: 9.2%
- % V (% viability) [1, 7]: 83%
- CC (cell count) [1, 7]: 521
- viable yeast cell count [1, 8]: 404
- % B (% budding) [1, 9]: 8.0%
- % V (% viability) [1, 9]: 75%
- CC (cell count) [1, 9]: 538
- viable yeast cell count ([1]; 5 ppm, Average 12-48 hours): 465
- A % B (average % budding) [1, 10]: 10.0%
- A % V (average % viability) [1, 10]: 83.8%
- ACC (average cell count) [1, 10]: 554
- viable yeast cell count [1, 11]: 494
- % B (% budding) [1, 12]: 17.7%
- % V (% viability) [1, 12]: 86%
- CC (cell count) [1, 12]: 574
- viable yeast cell count [1, 13]: 528
- % B (% budding) [1, 14]: 7.8%
- % V (% viability) [1, 14]: 91%
- CC (cell count) [1, 14]: 580
- viable yeast cell count [1, 15]: 410
- % B (% budding) [1, 16]: 7.3%
- % V (% viability) [1, 16]: 78%
- CC (cell count) [1, 16]: 526
- viable yeast cell count [1, 17]: 385
- % B (% budding) [1, 18]: 9.0%
- % V (% viability) [1, 18]: 74%
- CC (cell count) [1, 18]: 520
- viable yeast cell count ([1]; 15 ppm, Average 12-48 hours): 454
- A % B (average % budding) [1, 19]: 10.4%
- A % V (average % viability) [1, 19]: 82.3%
- ACC (average cell count) [1, 19]: 550
- viable yeast cell count [1, 20]: 528
- % B (% budding) [1, 21]: 14.8%
- % V (% viability) [1, 21]: 85%
- CC (cell count) [1, 21]: 621
- viable yeast cell count [1, 22]: 496
- % B (% budding) [1, 23]: 10.3%
- % V (% viability) [1, 23]: 89%
- CC (cell count) [1, 23]: 557
- viable yeast cell count [1, 24]: 400
- % B (% budding) [1, 25]: 7.0%
- % V (% viability) [1, 25]: 78%
- CC (cell count) [1, 25]: 513
- viable yeast cell count [1, 26]: 385
- % B (% budding) [1, 27]: 6.0%
- % V (% viability) [1, 27]: 78%
- CC (cell count) [1, 27]: 493
- viable yeast cell count ([1]; 30 ppm, Average 12-48 hours): 452
- A % B (average % budding) [1, 28]: 9.5%
- A % V (average % viability) [1, 28]: 82.5%
- ACC (average cell count) [1, 28]: 546
- A % B (average % budding) [1, 29]: 10.0%
- A % V (average % viability) [1, 29]: 82.8%
- ACC (average cell count) [1, 29]: 550
- viable yeast cell count [1, 30]: 519
- viable yeast cell count [1, 31]: 504
- viable yeast cell count [1, 32]: 414
- viable yeast cell count [1, 33]: 391
- viable yeast cell count [1, 34]: 457
- decrease of lactic acid production (contaminating bacteria; [35]): about a quarter percent
- increase of ethanol production (contaminating bacteria; [35]): about half a percent
- production increase of ethanol per fermentor (contaminating bacteria; [35]): about 2,500 gallons
- Acetic % (contaminating bacteria; [36]): 0.03%
- EtOH v/v % (contaminating bacteria; [36]): 15.98 v/v %
- Glucose % (contaminating bacteria; [36]): 0.28%
- Lactic % (contaminating bacteria; [36]): 0.24%
- Acetic % (contaminating bacteria; [37]): 0.03% and 0.02% and 0.05% and 0.04%
- Glucose % (contaminating bacteria; [37]): 0.28% and 0.30% and 0.27% and 0.29%
- Lactic % (contaminating bacteria; [37]): 0.28% and 0.19% and 0.21% and 0.26% and 0.25% and 0.23% and 0.24%
